Each structure is given as a SMILES string. Read-outs that look alike come from different tables or passages of the source.

For this test, the system named is Trichophyton violaceum. Description: growth of strains streaked on Sabouraud agar containing the products. Type of test: cell-based. The following applies: Tric.Violaceum; for activity at 10 µg/mL: read-out: % DE CROISSANCE; for inhibition at 2 µg/mL / inhibition at 10 µg/mL / inhibition at 20 µg/mL / inhibition at 50 µg/mL: read-out: inhibition de la croissance.

Take `CCCCOCCOCCOCc1cc2c(cc1CCC)OCO2` [Piperonyl., pipéronyl butoxyde]: the activity at 10 µg/mL is 0% (0 h, J0, 10µg/ml each product); 0% (96 h, J4, 10µg/ml each product); 15% (144 h, J6, 10µg/ml each product); 35% (240 h, J10, 10µg/ml each product); 35% (336 h, J14, 10µg/ml each product). Besides, the inhibition (commonly the relative decrease from the control value, in per cent) at 2 µg/mL runs as follows: (J+4, 2 µg/ml) 25%; (J+10, 2 µg/ml) 90%; (J+14, 2 µg/ml) 100%. In addition, the inhibition at 10 µg/mL was determined as 0% (J+4, 10 µg/ml); 35% (J+10, 10 µg/ml); 35% (J+14, 10 µg/ml). The inhibition at 20 µg/mL is, setting by setting: (J+4, 20 µg/ml) 0%; (J+10, 20 µg/ml) 15%; (J+14, 20 µg/ml) 25%. Also, the inhibition at 50 µg/mL is, setting by setting: (J+4, 50 µg/ml) 0%; (J+10, 50 µg/ml) 0%; (J+14, 50 µg/ml) 0%.
